Measured values from patent US20240050409A1, “Methods and Compositions for Treating Psychotic Disorders” (SOUND PHARMACEUTICALS INCORPORATED, priority 2014, published 2024).
Entries after “also recorded” stand apart in the source; their conditions may differ.

Assays:
[1] = system: 3-NT levels in PFC of NVHL rats; experiment: 3-Nitrotyrosine (3-NT) labeling in adult PFC of NVHL rats; format: in vivo, Sprague-Dawley rats; conditions: P61 NVHL rats, juvenile treatment
Excerpt: To assess oxidative stress, DNA oxidation with 8-oxo-7,8-dihydro-20-deoxyguanine (8-oxo-dG) labeling was quantified. […] 3-NT indicates nitration of proteins due to oxidative and nitrosative stress (Radi, 2004), and its increase in NVHL rats was prevented by NAC treatment during development (as shown in FIGS. 9A and 9B). […] A possible explanation for the levels of oxidative stress detected in the adult PFC following an NVHL is the reduced glutamatergic input from ventral hippocampus during development, as blocking NMDA receptors induces oxidative stress in PVI (Behrens et al., 2007).
Antioxidant pretreatment regimen: NAC (BioAdvantexPharma, Mississauga, Ontario, Canada) was administered in the drinking water at 900 mg/l. NAC treatment started at P5 or at P35, and previous work in mice has shown that NAC consumed by the dam is transmitted to the pups through her milk (das Neves Duarte et al., 2012). NAC treatment ended at P50. Fresh solutions were prepared every 2-3 days. Ebselen (Sound Pharmaceuticals Inc., Seattle, WA) was administered i.p. 5 days a week starting at P35 until the day of PPI testing (P60). Stock ebselen solution (20 mg/ml DMSO, frozen aliquots) was diluted 1:5 in sterile water and administered at a dose of 10 mg/kg. Control animals received an equivalent concentration of DMSO diluted 1:5 in water. […]

[2] = system: dopamine D2-dependent modulation of EPSPs in PFC pyramidal cells of NVHL rats; experiment: Slice electrophysiology: D2 (quinpirole) modulation of EPSPs in PFC layer V pyramidal cells of NVHL rats; format: in vivo, Sprague-Dawley rats; conditions: adult NVHL rat PFC slices, quinpirole 5 μM; treatment during development
Protocol: If juvenile oxidative stress is the cause of physiological anomalies observed in adult NVHL rats, NAC treatment can rescue these alterations. Whole-cell recordings were conducted from pyramidal neurons in adult brain slices containing the medial PFC of SHAM (n=12), NVHL (n=16), and NAC-treated NVHL rats (n=14). As previously shown in adult NVHL rats and other rodent models of schizophrenia (Niwa et al., 2010; Tseng et al., 2008), the dopamine D2-dependent modulation of excitatory postsynaptic potentials (EPSPs) in layer V pyramidal cells was lost in NVHL rats (as shown in FIGS. 13A-C). This loss is likely due to abnormal maturation of PFC interneurons, as the normal adult D2 modulation includes a GABA-A receptor component (Tseng and O'Donnell, 2007), but oxidative stress in pyramidal neurons may also play a role. To determine whether altered PVI-dependent PFC synaptic responses are due to oxidative stress, rats were treated with NAC during development and then tested for D2 modulation of PFC physiology.
Antioxidant pretreatment regimen: NAC (BioAdvantexPharma, Mississauga, Ontario, Canada) was administered in the drinking water at 900 mg/l. NAC treatment started at P5 or at P35, and previous work in mice has shown that NAC consumed by the dam is transmitted to the pups through her milk (das Neves Duarte et al., 2012). NAC treatment ended at P50. […]

SMILES: CC(=O)N[C@@H](CS)C(=O)O [NAC, N-acetyl cysteine]
- effect on increase in 3-NT labeling in PFC [1]: prevented
- effect on lost D2 modulation (quinpirole attenuation) of EPSPs [2]: rescued; also recorded: reverses
